Assay results from patent US20090317419A1, “Tetramers” (Duke University, priority 2008, published 2009).
Several values for one entry are separate records, joined by “and”; a condition that tells them apart may be missing. Identical values can stand only once. Like-named read-outs stand apart in the source and are kept apart here. Ends that are not written are not given here. * marks the point of attachment. Biotin = O=C1N[C@H]2[C@H](CS[C@H]2CCCCC(=O)*)N1

What was measured:
[1] = test system: 2F5 mAb; assay: Binding of alanine substituted gp41 MPER tetramers to 2F5 (antibody-coated beads and SPR); parameters: species or system human; details: flow cytometry on antibody-coated beads and SPR
Protocol: (§1) Data were analyzed using FlowJo (Tree Star, Ashland, Oreg.).
(§2) Development of gp41 MPER tetramers specific for neutralizing vs. non-neutralizing antibodies. […] Therefore, the next question asked was whether gp41 MPER tetramers could be made that preferentially react with either of these two prototype antibodies that would make it possible to discriminate between neutralizing 2F5-like gp41 MPER antibodies and non-neutralizing 13H11-like MPER antibodies. To address this issue, a series of gp41 MPER tetramers were made with alanine substitutions along the primary sequence (see Table 8) and assayed for the binding of 13H11 or 2F5 by flow cytometry on antibody-coated beads and by SPR (FIGS. 6C and 6D). […] Thus, tetramers made with the A13 or A15 mutant will bind B cells only with surface Ig similar to the non-neutralizing 13H11 antibody while tetramers made with the A14, A18, or A20 mutants will bind B cells only with surface Ig with specificities similar to the neutralizing 2F5 antibody.

[2] = test system: total naïve splenic BALB/c B cells; details: APC-labeled tetramer
Protocol: (§3) Cell isolation, serum collection, and PBMC isolations. Heparinized or non-heparanized blood was collected sub-mandibularly 10 days after immunizations. For preparation of peripheral blood lymphocytes for B cell tetramer analysis, PBMC were isolated from blood collected in heparinized tubes (0.2 ml) using Lympholyte M (Cederlane). For Luminex and ELISA assays, sera was isolated from non-heparanized blood and stored at −20° C. until use. Spleen, bone marrow (BM), and peritoneal cavity (PerC) cells were also collected. For most immunizations, tissues were harvested after the 4th boost, except for kinetic studies, in which tissues from mice were harvested after 1, 3 or 7 days after a single immunization. For BM preparations, femora and tibiae were removed, aspirated with tissue medium using 23 gauge needles, filtered with 70 μm cell strainers (BD labware), and RBC-depleted using Tris-buffered ammonium chloride lysis. For splenocyte preparation, spleens were harvested and dissociated into single-cell suspensions either by passage through 70 μm cell strainers in tissue medium or by using frosted glass slides, and blood erythrocytes were depleted with ammonium chloride lysis. For isolation of peritoneal cells, peritoneal cavities of sacrificed mice were lavaged by injection with 10 ml of PBS, followed by gentle massage of the abdomen, and withdrawal of the peritoneal exudates. BM, splenic, and peritoneal single cell suspensions were centrifuged at 1500 rpm for 5 min and resuspended in 5, 10, and 1 ml of tissue media, respectively, for cell counts and immunofluorescence staining. Cell counts were performed in duplicate on a Coulter ZI Dual Threshold Cell Counter (Coulter).
(§4) Antibodies and flow cytometry. Immunofluorescent staining of single cell suspensions (≧2×10^6) was conducted using pre-mixed combinations of fluorochrome-labeled antibodies and APC-conjugated B cell tetramers at empirically-determined optimal concentrations. All antibodies were from BD unless otherwise stated. […] Other reagents included biotinylated antibodies against dump channel markers: Thy1 (Ox7; Abcam), F4/80 (BM8; Abcam), CD11c (clone HL3), Gr-1 (clone RB6-8C5), TER-119, and NK-1.1 (clone PK136), secondary staining SA-Texas Red conjugate; v-amine live/dead violet dye (Molecular Probes), and Fc block (anti-CD16/32; clone 2.4G2).
(§5) Staining was conducted at 4° C. in several sequential steps in FACS staining buffer (1×PBS with 2% FCS, 0.1% NaN3), washing twice between steps. First, cells were incubated with v-amine live/dead dye for 15 min. Next, cells were stained with APC-labeled tetramers for 30 min. Where applicable, this was preceded by addition of cold tetramer at 10 fold molar excess for 1 h. Finally, cells were stained with Fc block for 30 min, followed by incubation with combinations of primary antibody cocktails for 30 min, and secondary staining with SA-Texas Red for 30 min.
(§6) Data were acquired using an LSRII flow cytometer and Cell Quest software (BD Immunocytometry systems). A minimum of 250000 events were acquired per sample. FACS Analysis was performed using FlowJo software (Tree Star). For analysis, single cells were positively gated based on their forward scatter height vs. forward scatter area and side scatter height vs. side scatter area profiles, lymphocytes were then positively gated based on their forward and side scatter profile (live lymphocyte gate), residual dead cells were excluded with negative gating on v-amine live/dead dye, and all irrelevant non-B cells were excluded with negative gating on dump markers Thy1, F4/80, CD11c, Gr-1, TER-119, and NK-1.1.

[3] = test system: B cell subsets from naive C57BL/6 mice
Protocol: as §3, §4, §5, §6
To examine if gp41 2F5 MPER epitope reactivity across B cell subsets mapped similarly on the IgH^b allotype, reactivity to gp41 2F5 MPER tetramers was measured by measuring the percentage of APC-labeled gp41 2F5 MPER tetramer-reactive cells in C57BL/6 bone marrow, splenic, and peritoneal B cell subsets (Table 10).

[4] = test system: mAb 7B2 (anti-gp41 immunodominant region); details: SPR, mAb 7B2 captured
Protocol: (§7) Surface Plasmon Resonance (SPR) measurements of tetramer binding to peptide epitopes. Tetramer binding assays were carried out on a BIAcore 3000 (BIAcore/GE Healthcare, Piscataway, N.J.) instrument using mAbs against each specific B cell epitope.
(§8) Each mAb (about 1000 RU) was first captured on anti-human Fc mAb (Pierce, Rockford, Ill.) immobilized on a CM5 sensor chip. Approximately 3000 RU of anti-human Fc mAb was covalently coupled to each flow cell of the sensor chip as described before (Alam et al, Journal of Immunology 178:4424-4435 (2007)). Each B cell tetramer was injected over its epitope specific mAb or a control surface immobilized with irrelevant mAb. For each tetramer binding curve, non-specific binding signals obtained from the control surface were subtracted. The binding assay was monitored at 25° C. and using PBS, pH 7.4, as the running buffer. The BIAevaluation 3.0 software (BIAcore/GE Healthcare, Piscataway, N.J.) was used for SPR binding data analyses.

[5] = test system: mAb 7B2 on beads; details: flow cytometry
Protocol: (§9) Antibody-coated beads. Carboxyl-polystyrene beads (3.0-3.4 μm) (Spherotech, Inc., Lake Forest, Ill.) were resuspended in 0.01 M sodium acetate buffer (pH 5.0) and reacted (20° C.×1 hr) with 1-ethyl-3-(3-dimethylaminopropyl) carbodiimide hydrochloride (EDC) (Sigma-Aldrich, Co., St. Louis, Mo.) at a ratio of 3.1 mg beads to 1 mg EDC. Beads were washed with sodium acetate buffer, resuspended in a minimal volume before adding purified mAb in the same buffer (ratio of 16 mg beads to 1 mg mAb), incubated (20° C.×2 hrs), then washed with sodium acetate buffer. Beads were resuspended at 5% in PBS containing 1% bovine serum albumin and 0.02% sodium azide.
(§10) Use of antibody-coated beads and cell lines for tetramer quality control. Tetramer stocks were diluted to twice the desired final concentration in PBS containing 1% BSA. An equal volume of beads or cells at 5×10^5 up to 2×10^6 per sample were mixed with tetramer and incubated (4° C.×30 min). Beads or cells were washed with PBS+1% BSA before being fixed in 2% methanol-free formaldehyde (Polysciences, Inc, Warrington, Pa.) in PBS. Samples were stored at 4° C. prior to being analyzed by flow cytometry (BD LSR II, Becton Dickinson, Mountain View, Calif.). Data were analyzed using FlowJo (Tree Star, Ashland, Oreg.). For tetramer titration 40-80 ng tetramer per 10^6 cells/beads was serially diluted over 8-12 points. Optimal concentrations determined by this method were used for subsequent experiments. For cold competition experiments the incubation step was performed by staining with 10-fold excess unlabeled tetramer (4° C.×30 min) prior to the addition of APC-labeled tetramer. For cell dilution experiments, a mixture of mAb cell lines was made and then 1:10 serial dilutions of cells prepared. For cross competition experiments, mixtures of cells were prepared and then stained singly with anti-IgG reagents or tetramer, or the cells were doubly stained with both reagents either sequentially or concurrently.

[6] = test system: 7B2 cells; details: flow cytometry
Protocol: as §10

[7] = molecular target: 62.19 V3 tetramer
[8] = molecular target: 62.19 V3 tetramer; assay: SPR, captured mAb, tetramer injected
[9] = molecular target: B.con03 V3 tetramer; assay: SPR, captured mAb, tetramer injected
[10] = molecular target: gp41 MPER tetramer; assay: SPR, captured mAb, tetramer injected
[11] = molecular target: gp41 MPER tetramer; assay: flow cytometry, gp41 MPER tetramer on a mixture of 15% 13H11 hybridoma cells and 85% F39F cells (FIG. 4B); the value follows the mixing ratio
[12] = molecular target: gp41 MPER tetramer; assay: flow cytometry, gp41 MPER tetramer on the 15% 13H11 / 85% F39F cell mixture diluted tenfold with F39F cells (FIG. 4C); the value follows the mixing ratio
[13] = molecular target: gp41 MPER tetramer; assay: flow cytometry, gp41 MPER tetramer on the 13H11 / F39F cell mixture diluted a hundredfold in all with F39F cells (FIG. 4D); the value follows the mixing ratio
[14] = test system: 13H11 mAb; assay: Binding of alanine substituted gp41 MPER tetramers to 13H11 (antibody-coated beads and SPR); parameters: species or system mouse; details: flow cytometry on antibody-coated beads and SPR
Protocol: as §1, §2

[15] = molecular target: gp41 ID tetramer; assay: SPR, captured mAb, tetramer injected
[16] = test system: mAb F39F (anti-gp120 V3); details: SPR, mAb F39F captured, 25° C., PBS pH 7.4
Protocol: as §7, §8

[17] = test system: V3 loop mAbs 7B9 and F39F on beads; details: flow cytometry
Protocol: as §9, §10

[18] = test system: F39F cells; details: flow cytometry
Protocol: as §10

Sequence of gp41 MPER tetramer (P22629 37-163 limits assumed): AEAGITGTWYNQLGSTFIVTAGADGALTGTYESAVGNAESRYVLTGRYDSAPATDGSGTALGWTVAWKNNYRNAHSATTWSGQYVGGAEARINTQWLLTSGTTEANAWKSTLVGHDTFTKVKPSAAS
Sequence of 62.19 V3 tetramer (P22629 37-163 limits assumed): as above
Sequence of B.con03 V3 tetramer (P22629 37-163 limits assumed): as above
Sequence of gp41 ID tetramer (P22629 37-163 limits assumed): as above

QQEKNEQELLELDKAASLWN (QQEKNEQELLELDKAASLWN; also: tetramer with streptavidin) [A15, alanine substituted gp41 MPER tetramer]
binding to 2F5 mAb [1]: eliminated binding

Biotin-GGGNKEQDQAEESLQLWEKLNWL [gp41 MPER scrambled tetramer]
binding to total naïve splenic B cells [2]: Negligible binding
% of subset binding tetramer ± SEM ([3]; C57BL/6, Bone marrow, Immature): 0.10 ± 0.02%
% of subset binding tetramer ± SEM ([3]; C57BL/6, Bone marrow, MF): 0.09 ± 0.02%
% of subset binding tetramer ± SEM ([3]; C57BL/6, Bone marrow, Pro/pre): 0.06 ± 0.01%
% of subset binding tetramer ± SEM ([3]; C57BL/6, Bone marrow, T1): 0.12 ± 0.02%
% of subset binding tetramer ± SEM ([3]; C57BL/6, Bone marrow, T2): 0.11 ± 0.01%
% of subset binding tetramer ± SEM ([3]; C57BL/6, Peritoneum, B1a): 0.14 ± 0.03%
% of subset binding tetramer ± SEM ([3]; C57BL/6, Peritoneum, B1b): 0.13 ± 0.02%
% of subset binding tetramer ± SEM ([3]; C57BL/6, Peritoneum, B2): 0.15 ± 0.03%
% of subset binding tetramer ± SEM ([3]; C57BL/6, Spleen, MF): 0.11 ± 0.02%
% of subset binding tetramer ± SEM ([3]; C57BL/6, Spleen, MZ): 0.09 ± 0.01%
% of subset binding tetramer ± SEM ([3]; C57BL/6, Spleen, T1): 0.08 ± 0.01%
% of subset binding tetramer ± SEM ([3]; C57BL/6, Spleen, T2): 0.10 ± 0.02%

Biotin-GGGKQLQARVLAVERYLKDQQLLGIWGCSGKLICTTAV (cysteine pairing not given here) [gp41 ID tetramer]
koff [4]: 1.1 s^−1 × 10^−3
kon [4]: 1.2 M^−1s^−1 × 10^3
binding to antibody-coated beads [5]: bound only to mAb 7B2
binding to mAb cell line [6]: bound

F39F (antibody)
% of cells in the tetramer-positive quadrant [7]: 6%
% of cells positive for both tetramer and anti-IgG [7]: 6.34% and 6.22% and 6.05%
koff [8]: 0.0006 s⁻¹
kon [8]: 60500 M⁻¹ s⁻¹
koff [9]: 0.00065 s⁻¹
kon [9]: 83400 M⁻¹ s⁻¹

13H11 (antibody)
koff [10]: 0.0081 s⁻¹
kon [10]: 206000 M⁻¹ s⁻¹
percent of cells of the mixture stained with the tetramer [11]: 15.1%
percent of cells of the mixture stained with the tetramer [12]: 1.47%
percent of cells of the mixture stained with the tetramer over background [13]: 0.12%

QQEKNEQELLELDAWASLWN (QQEKNEQELLELDAWASLWN; also: tetramer with streptavidin) [A14, alanine substituted gp41 MPER tetramer]
binding to non-neutralizing mAb 13H11 [14]: significantly reduced or eliminated binding

QQEKNEQELLELDKWASLWA (QQEKNEQELLELDKWASLWA; also: tetramer with streptavidin) [A20, alanine substituted gp41 MPER tetramer]
binding to non-neutralizing mAb 13H11 [14]: significantly reduced or eliminated binding

Biotin-GGGQLDSIQKEVYQLGRQLVWCTARLATKLVGKACGIL (cysteine pairing not given here) [gp41 ID scrambled tetramer]
binding to antibody-coated beads [5]: higher background
binding to mAb cell line [6]: higher background

2F5 (antibody)
koff [10]: 0.00037 s⁻¹
kon [10]: 174000 M⁻¹ s⁻¹

7B2 (antibody)
koff [15]: 0.0011 s⁻¹
kon [15]: 1200 M⁻¹ s⁻¹

QQEKNEQELLELDKWASAWN (Biotin-GGGQQEKNEQELLELDKWASAWN; also: tetramer with streptavidin) [A18, alanine substituted gp41 MPER tetramer]
binding to non-neutralizing mAb 13H11 [14]: significantly reduced or eliminated binding

Biotin-GGGTRPNNNTRKSIHIGPGRAFYTTGEIIGDIRQAH [B.con03 V3 tetramer]
koff [16]: 0.65 s^−1 × 10^−3
kon [16]: 83.4 M^−1s^−1 × 10^3
binding to antibody-coated beads [17]: bound to both V3 loop mAbs 7B9 and F39F
binding to mAb cell line [18]: bound

QQEKNEQELLELAKWASLWN (QQEKNEQELLELAKWASLWN; also: tetramer with streptavidin) [A13, alanine substituted gp41 MPER tetramer]
binding to 2F5 mAb [1]: eliminated binding
